Data on 33 compounds can be found in patent publication US11014911B2, “CDK2 inhibitors” (Pfizer Inc., priority 2019, dated 2021).

For orientation: Ki means a measure of affinity in units of concentration, obtained from inhibition or displacement.

Structures are written as SMILES.

The assay addresses CDK2/Cyclin E1 full length (Homo sapiens (Human), UniProt P24941). The assay can be described thus: CDK2/Cyclin E1 full length mobility shift assay. It is filed as biochemical.
On to `CCC(CO)CNC(=O)O[C@@H]1CC[C@H](c2cc(NC(=O)Cc3cnc(C)o3)n[nH]2)C1` (single isomer, unassigned) [Example 527], for which the Ki was found to be 2.63 nM. Turning to `CCC(CO)CNC(=O)O[C@@H]1CC[C@H](c2cc(NC(=O)Cc3ccc(OC)cc3)n[nH]2)C1` (single isomer, unassigned) [Example 530], the Ki was determined as 2.03 nM. With `CCC(CO)CNC(=O)O[C@@H]1CC[C@H](c2cc(NC(=O)Cc3ccc(OC)cc3)n[nH]2)C1` (single isomer, unassigned) [Example 531] the figure was 1.51 nM. With `CCC(CO)CNC(=O)O[C@@H]1CC[C@H](c2cc(NC(=O)Cc3cc(F)cc(F)c3)n[nH]2)C1` (single isomer, unassigned) [Example 536] the figure was 2.07 nM; with `CC(CO)CNC(=O)O[C@@H]1CC[C@H](c2cc(NC(=O)Cc3cc(F)cc(F)c3)n[nH]2)C1` (single isomer, unassigned) [Example 538], 2.72 nM; with `CC(CO)CNC(=O)O[C@@H]1CC[C@H](c2cc(NC(=O)Cc3cc(F)cc(F)c3)n[nH]2)C1` (single isomer, unassigned) [Example 539], 2.35 nM. In the case of `CCC(O)CNC(=O)O[C@@H]1CC[C@H](c2cc(NC(=O)Cc3ccc(OC)cc3)n[nH]2)C1` (single isomer, unassigned) [Example 540] it was 2.65 nM; in that of `CCC(O)CNC(=O)O[C@@H]1CC[C@H](c2cc(NC(=O)Cc3ccc(OC)cc3)n[nH]2)C1` (single isomer, unassigned) [Example 541], 1.85 nM. With `CCC(O)CNC(=O)O[C@@H]1CC[C@H](c2cc(NC(=O)Cc3cc(F)cc(F)c3)n[nH]2)C1` (single isomer, unassigned) [Example 542], the Ki is 2.41 nM. With `CCC(O)CNC(=O)O[C@@H]1CC[C@H](c2cc(NC(=O)Cc3cc(F)cc(F)c3)n[nH]2)C1` (single isomer, unassigned) [Example 543] the figure was 1.96 nM; with `CN1CC(CNC(=O)O[C@H]2CC[C@@H](c3cc(NC(=O)Cc4cc(F)cc(F)c4)n[nH]3)C2)OCC1=O` (single isomer, unassigned) [Example 583], 2.71 nM.

As to `CN1CC(CNC(=O)O[C@H]2CC[C@@H](c3cc(NC(=O)Cc4cc(F)cc(F)c4)n[nH]3)C2)OCC1=O` (single isomer, unassigned) [Example 584], the inhibition constant Ki is 3.84 nM. With `Cc1cc(CC(=O)Nc2cc([C@H]3CC[C@@H](OC(=O)N4CCC4C)C3)[nH]n2)on1` (single isomer, unassigned) [Example 590] the figure was 2.86 nM.

Regarding `CCC1CCN1C(=O)O[C@@H]1CC[C@H](c2cc(NC(=O)Cc3ncc(C)o3)n[nH]2)C1` (single isomer, unassigned) [Example 599], the inhibition constant (Ki) was 1.38 nM. In the case of `CCC1CCN1C(=O)O[C@@H]1CC[C@H](c2cc(NC(=O)Cc3ncc(C)o3)n[nH]2)C1` (single isomer, unassigned) [Example 600] it was 2.12 nM; in that of `Cc1ncc(CC(=O)Nc2cc([C@H]3CC[C@@H](OC(=O)NC(C)C)C3)[nH]n2)s1` [Example 2, (1R,3S)-3-(3-{[(2-methyl-1,3-thiazol-5-yl)acetyl]amino}-1H-pyrazol-5-yl)cyclopentyl propan-2-ylcarbamate], 0.31 nM; in that of `Cc1cc(CC(=O)Nc2cc([C@H]3CC[C@@H](OC(=O)NC4(C)CC4)C3)[nH]n2)no1` [Example 7, (1R,3S)-3-(3-{[(5-methyl-1,2-oxazol-3-yl)acetyl]amino}-1H-pyrazol-5-yl)cyclopentyl (1-methylcyclopropyl)carbamate], 0.61 nM. In the case of `Cc1nnc(CC(=O)Nc2cc([C@H]3CC[C@@H](OC(=O)NC4(C)CCC4)C3)[nH]n2)s1` [Example 18, (1R,3S)-3-(3-{[(5-methyl-1,3,4-thiadiazol-2-yl)acetyl]amino}-1H-pyrazol-5-yl)cyclopentyl (1-methylcyclobutyl)carbamate] it was 0.17 nM; in that of `Cc1ncc(CC(=O)Nc2cc([C@@H]3CC[C@H](OC(=O)NC(C)C)C3)[nH]n2)s1` [Example 26], 0.21 nM. In the case of `CC[C@H](C)NC(=O)O[C@@H]1CC[C@H](c2cc(NC(=O)Cc3ccccc3S(N)(=O)=O)n[nH]2)C1` [Example 49] it was 0.19 nM; in that of `COc1cc(C(=O)Nc2cc([C@H]3CC[C@@H](OC(=O)N[C@@H](C)CC(F)(F)F)C3)[nH]n2)n(C)n1` [Example 94], 0.15 nM; in that of `COc1cnc(CC(=O)Nc2cc([C@H]3CC[C@@H](OC(=O)N[C@@H](C)C4CC4)C3)[nH]n2)cn1` [Example 106], 0.76 nM.

With `Cn1ncc(CC(=O)Nc2cc([C@H]3CC[C@@H](OC(=O)NC(C)(C)C)C3)[nH]n2)n1` [Example 110], the Ki was found to be 0.29 nM.

As to `CC(C)(C)NC(=O)O[C@@H]1CC[C@H](c2cc(NC(=O)Cc3cc(Cl)ccn3)n[nH]2)C1` [Example 115], the inhibition constant (Ki) is 0.23 nM. With `CC1(NC(=O)O[C@@H]2CC[C@H](c3cc(NC(=O)Cc4cnc(C(F)(F)F)cn4)n[nH]3)C2)CC1` [Example 130] the figure was 0.25 nM; with `Cc1cnc(CC(=O)Nc2cc([C@H]3CC[C@@H](OC(=O)NC4(C)CC4)C3)[nH]n2)cc1Cl` [Example 131], 0.2 nM.

In the case of `CC1(NC(=O)O[C@@H]2CC[C@H](c3cc(NC(=O)Cc4ccc5ncccc5n4)n[nH]3)C2)CC1` [Example 132], the Ki was 0.19 nM. Consider `CCCNC(=O)O[C@H]1CC[C@@H](c2cc(NC(=O)Cc3c[nH]cn3)n[nH]2)C1` [Example 165, (1S,3R)-3-{3-[(1H-imidazol-4-ylacetyl)amino]-1H-pyrazol-5-yl}cyclopentyl propylcarbamate], for which the Ki turned out to be 2.28 nM. With `CCCNC(=O)O[C@H]1CC[C@@H](c2cc(NC(=O)Cc3cn4ccccc4n3)n[nH]2)C1` [Example 191, (1S,3R)-3-{3-[(imidazo[1,2-a]pyridin-2-ylacetyl)amino]-1H-pyrazol-5-yl}cyclopentyl propylcarbamate] the figure was 3.33 nM; with `CCCNC(=O)O[C@H]1CC[C@@H](c2cc(NC(=O)Cc3cc(OC)ncc3O)n[nH]2)C1` [Example 193, (1S,3R)-3-(3-{[(5-hydroxy-2-methoxypyridin-4-yl)acetyl]amino}-1H-pyrazol-5-yl)cyclopentyl propylcarbamate], 0.41 nM; with `CCCNC(=O)O[C@H]1CC[C@@H](c2cc(NC(=O)Cc3ccnc(OC)c3O)n[nH]2)C1` [Example 194, (1S,3R)-3-(3-{[(3-hydroxy-2-methoxypyridin-4-yl)acetyl]amino}-1H-pyrazol-5-yl)cyclopentyl propylcarbamate], 0.8 nM. For `CCCNC(=O)O[C@@H]1CC[C@H](c2cc(NC(=O)c3ccnn3CCN(C)C)n[nH]2)C1` [Example 195, (1R,3S)-3-{3-[({1-[2-(dimethylamino)ethyl]-1H-pyrazol-5-yl}carbonyl)amino]-1H-pyrazol-5-yl}cyclopentyl propylcarbamate], the Ki was 4.39 nM. As for `CCCNC(=O)O[C@@H]1CC[C@H](c2cc(NC(=O)Cc3cccc4ncsc34)n[nH]2)C1` [Example 196, (1R,3S)-3-{3-[(1,3-benzothiazol-7-ylacetyl)amino]-1H-pyrazol-5-yl}cyclopentyl propylcarbamate], the Ki was 1.44 nM.
